Assay results as given in publication PMC5062470, “The mGluR2 positive allosteric modulator, SAR218645, improves memory and attention deficits in translational models of cognitive symptoms associated with schizophrenia” (Scientific Reports, 2016).

Key:
Swiss mice [1] = assay: Novel object recognition task, MK-801-induced deficit; format: in vivo
From the text: The test apparatus was based on that described by Ennaceur and Delacour[37] in rats and adapted for use in mice[38]. The apparatus consisted of a uniformly lit (20 lux) PVC enclosure (52 L × 52 W × 40 H cm) with a video camera positioned 160 cm above the bench. The objects to be discriminated were a metal triangle (3.3 cm height, 5.5 cm wide) and a plastic piece of construction game (3 cm height and 3 cm wide). The observer was located in an adjacent room fitted with a video monitoring system. The experiment consisted of 3 sessions. During the first session, male Swiss mice (25–30 g) were allowed to become familiar with the experimental environment for 5 min (S1). Time spent active (animal moving around with or without sniffing and exploration) was measured. […] Times spent exploring the familiar and novel objects were recorded. […] Data (time exploring each of the two objects, in seconds) were analyzed with a two-way ANOVA, with the treatment and the object as the between factors, followed by a Winer analysis for comparing the time spent exploring the familiar versus the novel object for each treatment. […]

Swiss mice [2] = assay: Amphetamine-induced locomotor hyperactivity; format: in vivo
Procedure: An actimeter device consisting of a cylinder (20 cm diameter, 9.5 cm height, Apelex, France) equipped with two perpendicular light beams located 1.5 cm above the floor was used. Mice from the transgenic batches (DAT^−/− and NMDA Nr1^neo−/−) were orally pretreated with either SAR218645 or vehicle and individually isolated in boxes for a period of 60 min. Animals were then placed in the actimeter device and locomotor activity (number of interrupted light beams) was recorded for a period of 30 or 60 min. Mice in which the expression of the dopamine transporter (DAT) was knocked out (i.e., the DAT^−/− mouse) have been proposed as a reliable model of the positive symptoms of schizophrenia. In these mice, dopamine levels in the synapse are dramatically elevated and these animals are hyperactive and agitated in behavioral tests. […] Immediately following amphetamine challenge, 30 min after MK-801 challenge, mice were placed in the actimeter devices and locomotor activity was recorded for a period of 30 (DAT^−/−) or 60 (NMDA Nr1^neo−/−) min.
Statistical analyses were performed using SAS V8.2 software (SAS Institute, Cary, NC, USA). The number of light beam breaks (motility count) recorded for 30 or 60 min were analyzed using one-way ANOVAs using a fixed factor of challenge or genotype and complementary post hoc (Newman-Keuls) tests were performed. […]

[3] = Plasma exposure and brain penetration after single oral dose; format: in vivo, mice; conditions: male; for AUC(0-inf) / AUC(0-t): CD-1, mouse; for AUC(0-t): tlast 8 h; for Cmax: mouse, CD-1 mice
Procedure: Plasma and brain exposures of SAR218645 in male CD-1 mice (25–30 g at arrival) were measured after single oral doses of 1, 3 and 10 mg/kg. Mouse plasma samples (25.0 μl) were transferred into micro-centrifuge tubes (1.7 ml) and mixed with 50 μl of Internal Standard solution (500 ng/ml in acetonitrile). The tubes were vortex mixed for 1 min and centrifuged at 10,000 g for 5 min. An aliquot of the supernatant (50 μl) was transferred into an autosampler vial and mixed with 100 μl of water for LC/MS/MS analysis. Each mouse brain was first homogenized with 3.0 ml of 25% acetonitrile in water. The tissue homogenates (50.0 μl) were transferred into micro-centrifuge tubes (1.7 ml) and mixed with 100 μl of Internal Standard solution (500 ng/ml of A000597492 in acetonitrile). The tubes were vortex mixed for 1 min and centrifuged at 10,000 g for 5 min. An aliquot of the supernatant (50 μl) was transferred into an autosampler vial and mixed with 100 μl of water for LC/MS/MS analysis. The lower limits of quantitation (LLOQ) for SAR218645 were 0.500 ng/ml for plasma and 0.100 ng/ml for brain homogenate. The calibration curves were linear in the above prepared concentration ranges. The LLOQ for brain tissue was estimated to be approximately 0.80 ng/g. The pharmacokinetic parameters were calculated from the arithmetic mean of the group sample concentrations using the program WinNonLin 5.2., non-compartment model 200 for the extravascular routes.

OF1 mice = assay: Maximal electroshock seizure (MES) test; format: in vivo
Procedure: SAR218645 (30 mg/kg, po) and the reference anticonvulsant agent, diazepam (10 mg/kg), were administered ip to OF1 mice (12–14 g) 30 min prior to test, respectively. An electrical stimulus (60 Hz, 0.8 ms rectangular pulse, 0.4 s duration, 50 mA) was applied to both corneas. The occurrence of tonic extension of the hindlimbs was noted.

Q: Which results are given for `CC1(C)CCc2cc(OC[C@@H]3Cn4ccc(=O)nc4O3)ccc21` [SAR218645, (S)-2-(1,1-dimethyl-indan-5-yloxymethyl)-2,3-dihydro-oxazolo[3,2-a]pyrimidin-7-one]?
A: effect on preferential investigation of the novel object (Swiss mice [1]; 0.01, 0.03 and 0.1 mg/kg po, coadministered with MK-801 (0.0125 mg/kg, ip)): significantly restored; Minimal active dose (Swiss mice [1]; dose-range 0.01–1, po, Swiss mice): 0.01 mg/kg; effect on locomotor activity (Swiss mice [2]; amphetamine 2 mg/kg ip, SAR218645 po): no effects; Minimal active dose (Swiss mice [2]; dose-range 0.1–10, po, Swiss mice): >10 mg/kg; AUC(0-inf) ([3]; plasma, 1 mg/kg oral): 230 ng·h/mL; AUC(0-t) ([3]; plasma, 1 mg/kg oral): 230 ng·h/mL; AUC(0-inf) ([3]; plasma, 3 mg/kg oral): 540 ng·h/mL; AUC(0-t) ([3]; plasma, 3 mg/kg oral): 540 ng·h/mL; AUC(0-inf) ([3]; plasma, 10 mg/kg oral): 2400 ng·h/mL; AUC(0-t) ([3]; plasma, 10 mg/kg oral): 2300 ng·h/mL; Cmax ([3]; brain, 1 mg/kg oral): 32 ng/g; Cmax ([3]; brain, 3 mg/kg oral): 103 ng/g; Cmax ([3]; brain, 10 mg/kg oral): 339 ng/g; Cmax ([3]; plasma, 1 mg/kg oral): 131 ng/mL; Cmax ([3]; plasma, 3 mg/kg oral): 434 ng/mL; Cmax ([3]; plasma, 10 mg/kg oral): 1080 ng/mL; Tonic seizures (OF1 mice; 30 mg/kg ip): 100%; Minimal active dose (OF1 mice; 30, ip, OF1 mice): >30 mg/kg
